Source: US20180055844A1 (Celgene Corporation, priority 2011, published 2018)
“And” between values parts separate entries of the source, which are not always exact repeats. Identical values can stand only once. “Also recorded” adds a separate entry of the source. Like-named read-outs stand apart in the source and are kept apart here.

Experiments:
blood vessel growth = assay: Mouse Matrigel angiogenesis assay; type: in vivo; settings: 30 mpk
SF295 = assay: Solid tumor cell colony formation; type: cell-based; settings: Homo sapiens, SF-295
Farage cells = assay: Cytotoxicity assay (3 day ATP production); type: cell-based; settings: 72 hours, read-out: Farage (GCB-DLBCL) GIC50
Protocol: (§1) Cells line Farage, DOHH2 and Rec-1 were obtained from American Type Culture Collection (Manassas, Va., USA) Cytotoxicity assays were measured in 3 day ATP production assays as follows: The cells were plated in black/clear-bottom 96-well TC plates (BD Falcon, Cat #353948) at 3000 cells/75 μL (for DoHH-2 and Farage cells) or 6000 cells/75 μL (Rec-1 cells) media per well. […] Plates were then sealed with breathable sealing films (ISC BioExpress, Cat # T-2421-50) and placed in a 37° C., 5% CO2 humidified incubator for 72 hours. In addition, cells were seeded in a separate plate in the same manner as above, 25 μL medium in 1% DMSO was added to each well. This plate was immediately tested in the CellTiter-Glo Luminescent Cell Viability Assay (Promega, Cat # G7572) as 0 time point and the results were used to calculate GIC50 in the Farage and DOHH-2 cell experiments After 72 hours of incubation, 100 μL of CellTiter-Glo reagent were added to each well and incubated at room temperature with gentle shaking for 30 minutes. The plates were then analyzed for luminescence in a TopCount NXT Reader (Packard). Each well was counted for one second. Values for duplicate wells were averaged and then compared to the zero time point DMSO control (0% inhibition) to calculate the percentage inhibition of cell growth. Mean DOHH-2 GIC50 values and Farage GIC50 values were calculated from three experiments. Rec-1 IC50 values were calculated from two experiments.

Rec-1 cells = assay: Cytotoxicity assay (3 day ATP production); type: cell-based; settings: Homo sapiens, Rec1; 72 hours; read-out: REC1 (MCL) IC50
Protocol: as §1

DoHH-2 cells = assay: Cytotoxicity assay (3 day ATP production); type: cell-based; settings: Homo sapiens, 72 hours, read-out: DoHH2 (FL) GIC50
Protocol: as §1

D1 = assay: Activity against lenalidomide resistant cell lines; type: cell-based; settings: D1, n = 3; read-out: IC50
Protocol: (§2) The ability of compounds to effect the proliferation of MM cell lines was investigated in an in vitro study. Uptake of [^3H]-thymidine by H929 MM cells and 7-AAD uptake in several MM cell lines (H929, U266B1, Anbl-6, KMS-34, OPM-2, DF-15, DF15/R, CAG, MM1.S and LP-1) was measured as an indicator of cell proliferation. Cells were incubated in the presence of compounds for 72 hours ([^3H]-thymidine was included for the last 6 hours of the incubation period) or 5 days followed by 7-AAD uptake to measure and count viable cells.

1051 = assay: Activity against lenalidomide resistant cell lines; type: cell-based; settings: 1051, n = 3; read-out: IC50
Protocol: as §2

1054 = assay: Activity against lenalidomide resistant cell lines; type: cell-based; settings: 1054, n = 3; read-out: IC50
Protocol: as §2

1053 = assay: Activity against lenalidomide resistant cell lines; type: cell-based; settings: 1053, n = 3; read-out: IC50
Protocol: as §2

1052 = assay: Activity against lenalidomide resistant cell lines; type: cell-based; settings: 1052, n = 3; read-out: IC50
Protocol: as §2

H929 = assay: Activity against lenalidomide resistant cell lines; type: cell-based; settings: Homo sapiens, NCI-H929; H929, n = 3
Protocol: as §2

U87 [1] = assay: Solid tumor cell colony formation; type: cell-based; settings: Homo sapiens, U-87 MG
CRBN = biological target: T1, CRBN (Homo sapiens, UniProt Q96SW2); assay: CRBN interaction; type: binding; settings: dose-dependent
T1 construct: endogenous in cells; HepG2 hepatocellular carcinoma cells

[2] = test system: multiple myeloma (MM) cell lines; assay: Inhibition of MM cell proliferation; type: cell-based
Protocol: as §2

SF268 = assay: Solid tumor cell colony formation; type: cell-based; settings: Homo sapiens, SF-268
TNFα = assay: WB TNFα; type: cell-based; settings: Homo sapiens; whole blood
Oral pharmacokinetics [3] = type: in vivo; settings: SCID mouse
U87 [4] = assay: Invasion of solid tumor cells; type: cell-based; settings: Homo sapiens, U-87 MG; U87 (PDGF), glioblastoma
DoHH2 xenograft = DoHH2 xenograft model; type: in vivo; settings: for tumor growth inhibition: day 12
[5] = Proliferation assays with Rituxan (Chou-Talalay method); type: cell-based
HUVEC = HUVEC migration; type: cell-based; settings: Homo sapiens
Oral pharmacokinetics [6] = type: in vivo, SD rat
U87 GB xenograft = U87 GB xenograft model; type: in vivo; settings: 3 and 30 mg/kg qd
HCT15 = assay: Solid tumor cell colony formation; type: cell-based; settings: Homo sapiens, HCT-15
SK-HEP-1 [7] = assay: Invasion of solid tumor cells; type: cell-based; settings: Homo sapiens, SK-HEP1; SK-HEP-1 (VEGF), hepatocellular
human umbilical artery = assay: Human umbilical artery angiogenesis assay; type: cell-based
SK-HEP-1 [8] = assay: Solid tumor cell colony formation; type: cell-based; settings: Homo sapiens, SK-HEP1
[9] = plasma, 30 mg/kg, SD rat, 30 mpk po

T1 sequence (Q96SW2 whole entry): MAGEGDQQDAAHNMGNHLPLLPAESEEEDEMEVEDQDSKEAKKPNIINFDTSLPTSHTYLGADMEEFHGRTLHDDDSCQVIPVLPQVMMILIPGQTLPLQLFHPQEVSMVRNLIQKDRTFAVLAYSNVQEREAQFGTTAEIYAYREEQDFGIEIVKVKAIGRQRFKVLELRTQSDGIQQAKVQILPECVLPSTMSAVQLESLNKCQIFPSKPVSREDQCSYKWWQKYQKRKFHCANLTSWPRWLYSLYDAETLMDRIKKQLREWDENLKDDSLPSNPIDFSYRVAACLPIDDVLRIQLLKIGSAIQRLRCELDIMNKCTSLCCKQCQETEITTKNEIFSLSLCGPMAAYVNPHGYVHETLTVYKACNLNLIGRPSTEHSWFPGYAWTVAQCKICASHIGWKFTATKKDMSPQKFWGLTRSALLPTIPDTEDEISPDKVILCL

Cc1nc2cccc(N)c2c(=O)n1C1CCC(=O)NC1=O (centres unmarked) [compound of Formula I, 3-(5-amino-2-methyl-4-oxo-4H-quinazolin-3-yl)-piperidine-2,6-dione]
blood vessel growth (blood vessel growth): significantly inhibited
inhibition at 10 µM (SF295): 12.9%
IC50 (Farage cells): 700 nM
IC50 (Rec-1 cells): 470 nM
IC50 (DoHH-2 cells): 610 nM
IC50 (D1): 309 nM
IC50 1051: 2970 nM
IC50 1054: 6590 nM
IC50 1053: 2100 nM
IC50 1052: 4240 nM
IC50 (H929): 154 nM
inhibition at 10 µM (U87 [1]): 2%
interaction with HepG2 HCC CRBN (CRBN): interacts
interaction with endogenous myeloma CRBN (CRBN): interact
MM cell proliferation in a number of cell lines [2]: inhibit MM cell proliferation
inhibition at 10 µM (SF268): 0.6%
IC50 (TNFα): 164 nM
AUC (Oral pharmacokinetics [3]; in vivo, 3 mg/kg, 3 mpk po): 7100 ng·h/mL and 25 µM·h
Cmax (Oral pharmacokinetics [3]; in vivo, 3 mg/kg, 3 mpk po): 2900 ng/mL and 10 µM
Exposures (AUC(0-t)) versus dose (Oral pharmacokinetics [3]; up to 30 mg/kg): increased in a dose proportional manner
IC50 (U87 [4]): 80 nM
tumor growth inhibition (DoHH2 xenograft; 3 mpk in combination with Rituxan (1 mg/kg)): 45%
tumor growth inhibition (DoHH2 xenograft; 30 mpk in combination with Rituxan (1 mg/kg)): 55%
delay of time to tumor endpoint (DoHH2 xenograft; combination with Rituxan, 30 mg/kg dose): 63%
blood vessels counts in tumor (DoHH2 xenograft; in vivo): significantly inhibited
tumor growth (DoHH2 xenograft; single agent): inhibited tumor growth
interaction with Rituxan in proliferation assays [5]: synergistically
inhibition at 1 µM (HUVEC; read-out: inhibition of VEGF-induced migration): 38%
inhibition at 1 µM (HUVEC; read-out: inhibition of bFGF-induced migration): 28%
F (Oral pharmacokinetics [6]; SD rat, 30 mpk po): 53%
AUC (Oral pharmacokinetics [6]; [9]): 25000 ng·h/mL and 87 µM·h
Cmax (Oral pharmacokinetics [6]; [9]): 4800 ng/mL and 17 µM
half-life (Oral pharmacokinetics [6]; plasma, oral, 30 mpk, SD rat): 2.7 h
clearance (Oral pharmacokinetics [6]; plasma, SD rat, read-out: CLp): 11 mL/min/kg
Exposures (AUC(0-t)) versus dose (Oral pharmacokinetics [6]; up to 30 mg/kg, CD-IDS rat): increased in a dose proportional manner
U87 tumor growth (U87 GB xenograft): significantly inhibited; also recorded: inhibits
inhibition at 10 µM (HCT15): 3%
IC50 (SK-HEP-1 [7]): 6.1 nM
IC50 (human umbilical artery; read-out: Human angiogenesis IC50): 9.4 nM
IC50 (human umbilical artery; read-out: anti-angiogenic IC50, human umbilical artery assay): 9.4 nM
inhibition at 10 µM (SK-HEP-1 [8]): 6%
